Tests used:
[1] = AUC in rat at 6 mg/kg, po; format: ADME, organism-based; conditions: in vivo
[2] = Cmax in rat at 2 mg/kg, iv; format: ADME, organism-based; design: dose 2 mg/kg, route intravenous; conditions: in vivo
[3] = Drug uptake in rat liver at 6 mg/kg, po after 48 hrs; format: ADME, organism-based; conditions: read-out: Drug uptake
[4] = (§1) Oral bioavailability in rat at 6 mg/kg; format: ADME, organism-based; conditions: in vivo
[5] = Drug uptake in rat liver at 6 mg/kg, po after 24 hrs; format: ADME, organism-based; conditions: read-out: Drug uptake
[6] = Cmax in rat at 6 mg/kg, po; format: ADME, organism-based; design: dose 6 mg/kg, route oral; conditions: in vivo
[7] = Plasma concentration in rat at 6 mg/kg, po after 24 hrs; format: ADME, organism-based
[8] = Volume of distribution at steady state in rat at 2 mg/kg, iv or 6 mg/kg, po; format: ADME, organism-based; conditions: in vivo, read-out: Vdss
[9] = Oral bioavailability in cynomolgus monkey at 3 mg/kg; format: ADME, organism-based, Macaca fascicularis; conditions: in vivo
[10] = AUC in cynomolgus monkey at 3 mg/kg, po; format: ADME, organism-based, Macaca fascicularis; conditions: in vivo
[11] = tested on: Canis familiaris; assay: Oral bioavailability in dog at 3 mg/kg; format: ADME, organism-based, Canis lupus familiaris; conditions: in vivo
[12] = Volume of distribution at steady state in dog at 1 mg/kg, iv or 3 mg/kg, po; format: ADME, organism-based, Canis lupus familiaris; conditions: in vivo, read-out: Vdss
[13] = tested on: Canis familiaris; assay: AUC in dog at 3 mg/kg, po; format: ADME, organism-based, Canis lupus familiaris; conditions: in vivo
[14] = Volume of distribution at steady state in cynomolgus monkey at 1 mg/kg, iv or 3 mg/kg, po; format: ADME, organism-based, Macaca fascicularis; conditions: in vivo, read-out: Vdss
[15] = tested on: Rattus norvegicus; assay: as §1; format: ADME, organism-based; conditions: in vivo

Row | AUC [1] [µM·h] | Cmax [2] [nM] | concentration at 48 h [3] [nM] | bioavailability [4] [%] | concentration at 24 h [5] [nM] | Cmax [6] [nM] | concentration at 24 h [7] [nM] | Vd [8] [L/kg] | bioavailability [9] [%] | AUC [10] [µM·h] | F [11] [%] | Vd [12] [L/kg] | AUC [13] [µM·h] | Vd [14] [L/kg] | F [15] [%] | SMILES
1 | 10 | 3200 | 820 | 44 | 900 | 900 | 160 |  |  |  |  |  |  |  |  | CNC(=O)c1c(-c2ccc(F)cc2)oc2nc(CCC(F)(F)F)c(-c3cccc(C(=O)NC45CC(C4)C5)c3)cc12
2 | 0.15 to 13 | 1700 |  | 58 |  | 1100 | 150 | 5.6 | 61 | 8.3 | 85 | 3.3 | 25 | 2.8 |  | CNC(=O)c1c(-c2ccc(F)cc2)oc2nc(CCC(F)(F)F)c(-c3cccc(C(=O)NC(C)(C)c4ncon4)c3)cc12
3 | 18 | 1700 |  | 64 | 1600 | 600 | 560 |  |  |  |  |  |  |  |  | CCNc1nc2oc(-c3ccc(F)cc3)c(C(=O)NC)c2cc1-c1cccc(C(=O)NC(C)(C)C)c1
4 |  | 2500 |  |  |  | 600 | 39 |  |  |  |  |  |  |  | 31 | CNC(=O)c1c(-c2ccc(F)cc2)oc2nc(NCC(F)(F)F)c(-c3cccc(C(=O)NC(C)(C)c4ncon4)c3)cc12
